Results from US10501481B2, “Heterocyclic compounds and their use in preventing or treating bacterial infections” (priority 2015, dated 2019).

Columns and labels:
TEM-1 = target: T1, TEM-1 (Escherichia coli, UniProt P62593); test: β-lactamase inhibitory activity, nitrocefin hydrolysis; assay type: biochemical; settings: class (A); 30 min pre-incubation; nitrocefin 200 μM
T1 construct: made in house; host or cells: E. coli
Protocol: (§1) Enzyme activity was monitored by spectrophotometric measurement of nitrocefin (NCF-TOKU-E, N005) hydrolysis at 485 nm, at room temperature and in assay buffer A: 100 mM Phosphate pH7, 2% glycerol and 0.1 mg/mL Bovine serum albumin (Sigma, B4287). […] To a transparent polystyrene plate (Corning, 3628) were added in each well 5 μL DMSO or inhibitor dilutions in DMSO and 80 μL enzyme in buffer A. Plates were immediately read at 485 nm in a microplate spectrophotometer (BioTek, PowerWave HT) to enable background subtraction. After 30 min of pre-incubation at room temperature, 15 μL of NCF (200 μM final) were finally added in each well. Final enzyme concentrations were 0.1 nM (TEM-1), 0.075 nM (SHV-1), 0.4 nM (CTX-M-15), 1 nM (KPC-2), 0.2 nM (P99 AmpC), 0.2 nM (CMY-37), 0.4 nM (AmpC P. aeruginosa), 0.2 nM (OXA-1), 1.2 nM (OXA-11), 0.4 nM (OXA-15) and 0.3 nM (OXA-48). After 20 min incubation at room temperature, plates were once again read at 485 nm. Enzyme activity was obtained by subtracting the final signal by the background, and was converted to enzyme inhibition using non inhibited wells. IC50 curves were fitted to a classical Langmuir equilibrium model with Hill slope using XLFIT (IDBS).

CTX-M-15 = target: T2, CTX-M-15 (Escherichia coli, UniProt Q9EXV5); test: as above; assay type: biochemical
T2 construct: made in house; host or cells: E. coli
Protocol: as §1

KPC-2 = target: T3, KPC-2 (Klebsiella pneumoniae, UniProt Q9F663); test: as above; assay type: biochemical
T3 construct: made in house; host or cells: E. coli
Protocol: as §1

OXA-11 = target: T4, OXA-11 (Pseudomonas aeruginosa, UniProt Q06778); test: as above; assay type: biochemical
T4 construct: made in house; host or cells: E. coli
Protocol: as §1

[1] = tested on: P. aeruginosa CIP105250 (OXA-15); test: MIC broth microdilution, compounds alone; settings: Pseudomonas aeruginosa, CIP105250, read-out: MIC compounds of the invention alone
[2] = tested on: P. aeruginosa UFR47 (VIM-1); test: MIC broth microdilution, compounds alone; settings: Pseudomonas aeruginosa, read-out: MIC compounds of the invention alone
[3] = tested on: P. aeruginosa UFR48 (VIM-2); test: MIC broth microdilution, compounds alone; settings: Pseudomonas aeruginosa, read-out: MIC compounds of the invention alone
[4] = tested on: P. aeruginosa UFR59 (IMP-29); test: MIC broth microdilution, compounds alone; settings: Pseudomonas aeruginosa, read-out: MIC compounds of the invention alone
[5] = tested on: E. cloacae 260508 (TEM-1, CTX-M-15); test: MIC broth microdilution, alone and synergy with ceftazidime; settings: for MIC: Enterobacter cloacae, read-out: MIC compounds of the invention alone; for MIC of CAZ in combination with compound at 4 μg/mL: strain 260508, compound fixed at 4 μg/mL
[6] = tested on: E. coli UFR74 (SHV-1, DHA-1); test: as above; settings: for MIC: Escherichia coli, read-out: MIC compounds of the invention alone; for MIC of CAZ in combination with compound at 4 μg/mL: strain UFR74, compound fixed at 4 μg/mL
[7] = tested on: K. oxytoca UFR21 (TEM-1, CTX-M-15, OXA-48); test: as above; settings: for MIC: Klebsiella oxytoca, read-out: MIC compounds of the invention alone; for MIC of CAZ in combination with compound at 4 μg/mL: strain UFR21, compound fixed at 4 μg/mL
[8] = tested on: K. pneumoniae UFR24 (TEM-1, SHV-2, SHV-11, OXA-1, OXA-48, OXA-47); test: as above; settings: for MIC of CAZ in combination with compound at 4 μg/mL: strain UFR24, compound fixed at 4 μg/mL
[9] = tested on: K. pneumoniae 200047 (TEM-1, SHV-32, CTX-M-15, OXA-1); test: as above; settings: for MIC: Klebsiella pneumoniae, read-out: MIC compounds of the invention alone; for MIC of CAZ in combination with compound at 4 μg/mL: strain 200047, compound fixed at 4 μg/mL
[10] = tested on: C. murliniae 210102 (VIM-4); test: as above; settings: for MIC: read-out: MIC compounds of the invention alone; for MIC of CAZ in combination with compound at 4 μg/mL: strain 210102, compound fixed at 4 μg/mL
[11] = tested on: P. aeruginosa UFR35 (OXA-23); test: as above; settings: for MIC of CAZ in combination with compound at 4 μg/mL: strain UFR35, compound fixed at 4 μg/mL
[12] = tested on: P. aeruginosa UFR90 (derepressed AmpC, OprD−); test: as above; settings: strain UFR90; compound fixed at 4 μg/mL
[13] = tested on: P. aeruginosa UFR92 (derepressed AmpC, OprD−); test: as above; settings: strain UFR92; compound fixed at 4 μg/mL

T1 sequence (P62593 24-286 limits assumed): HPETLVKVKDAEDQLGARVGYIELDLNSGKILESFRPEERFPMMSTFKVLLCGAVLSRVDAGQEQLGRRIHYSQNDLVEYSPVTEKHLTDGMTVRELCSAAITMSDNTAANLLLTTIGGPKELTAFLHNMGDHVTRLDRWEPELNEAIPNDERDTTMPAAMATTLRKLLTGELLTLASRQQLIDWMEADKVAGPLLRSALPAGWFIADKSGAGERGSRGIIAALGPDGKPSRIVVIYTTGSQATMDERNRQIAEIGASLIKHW
T2 sequence (Q9EXV5 entry or part of it): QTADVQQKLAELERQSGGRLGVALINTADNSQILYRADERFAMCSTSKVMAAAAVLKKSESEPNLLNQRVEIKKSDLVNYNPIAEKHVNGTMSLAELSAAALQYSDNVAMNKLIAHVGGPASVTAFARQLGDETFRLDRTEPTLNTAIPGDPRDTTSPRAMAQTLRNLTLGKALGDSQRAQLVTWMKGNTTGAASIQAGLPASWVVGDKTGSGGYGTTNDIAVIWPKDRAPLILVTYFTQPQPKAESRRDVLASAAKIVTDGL
T4 sequence (Q06778 21-266): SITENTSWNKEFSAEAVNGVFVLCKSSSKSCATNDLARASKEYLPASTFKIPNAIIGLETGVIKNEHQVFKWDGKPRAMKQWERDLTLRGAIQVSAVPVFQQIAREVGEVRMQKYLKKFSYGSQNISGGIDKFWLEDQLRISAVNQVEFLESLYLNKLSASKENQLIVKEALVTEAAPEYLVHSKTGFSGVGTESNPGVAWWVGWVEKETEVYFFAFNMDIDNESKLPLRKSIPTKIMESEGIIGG
T3 sequence (Q9F663 25-293 limits assumed): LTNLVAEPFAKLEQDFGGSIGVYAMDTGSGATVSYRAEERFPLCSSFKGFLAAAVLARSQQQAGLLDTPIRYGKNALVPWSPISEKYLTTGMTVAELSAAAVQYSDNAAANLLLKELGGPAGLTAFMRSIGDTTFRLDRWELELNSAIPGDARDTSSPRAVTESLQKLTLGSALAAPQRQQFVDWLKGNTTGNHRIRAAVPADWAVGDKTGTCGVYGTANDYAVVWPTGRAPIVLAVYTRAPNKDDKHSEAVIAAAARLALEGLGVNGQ

Row | SMILES | IC50 (TEM-1) | IC50 (CTX-M-15) | IC50 (KPC-2) | IC50 (OXA-11) | MIC [1] | MIC [5] | MIC of CAZ in combination with compound at 4 μg/mL [5] | MIC [6] | MIC of CAZ in combination with compound at 4 μg/mL [6] | MIC [7] | MIC of CAZ in combination with compound at 4 μg/mL [7] | MIC of CAZ in combination with compound at 4 μg/mL [8] | MIC [9] | MIC of CAZ in combination with compound at 4 μg/mL [9] | MIC [10] | MIC of CAZ in combination with compound at 4 μg/mL [10] | MIC of CAZ in combination with compound at 4 μg/mL [11] | MIC of CAZ in combination with compound at 4 μg/mL [12] | MIC of CAZ in combination with compound at 4 μg/mL [13] | other results
1 | NCCn1c2c(sc1=O)C1CN(C2)C(=O)N1OS(=O)(=O)[O-].[Na+] (stereo not drawn) [Example 4, Sodium and 2,2,2-trifluoroacetate [5-(2-azaniumethyl)-4,9-dioxo-3-thia-5,8,10-triaza-tricyclo[6.2.1.0^2.6]undec-2(6)-en-10-yl] sulfate] | 4.6 nM | 1.3 nM | 7.4 nM | 82 nM | 8 µg/mL | 8 µg/mL | <0.25 µg/mL | 16 µg/mL | ≤0.25 µg/mL | 4 µg/mL | <0.25 µg/mL | ≤0.25 µg/mL | 8 µg/mL | <0.25 µg/mL | 4 µg/mL | <0.25 µg/mL | 2 µg/mL | 1 µg/mL | ≤0.25 µg/mL | MIC [2]: 16 µg/mL; MIC [3]: 8 µg/mL; MIC [4]: 8 µg/mL; MIC ([11]; Pseudomonas aeruginosa, read-out: MIC compounds of the invention alone): 8 µg/mL
2 | COC(=O)Cn1c2c(sc1=O)C1CN(C2)C(=O)N1OS(=O)(=O)[O-].[Na+] (stereo not drawn) [Example 2, Sodium [5-(2-methoxy-2-oxo-ethyl)-4,9-dioxo-3-thia-5,8,10-triaza-tricyclo[6.2.1.0^2.6]undec-2(6)-en-10-yl] sulfate] | 0.64 nM | 1.1 nM | 1.3 nM | 4.1 nM | > 32 µg/mL | 4 µg/mL | <0.25 µg/mL | 8 µg/mL | 1 µg/mL | 8 µg/mL | 16 µg/mL | 4 µg/mL | – | <0.25 µg/mL | 16 µg/mL | – | – | – | – | MIC ([8]; Klebsiella pneumoniae, read-out: MIC compounds of the invention alone): 16 µg/mL
3 | Cn1c2c(sc1=O)C1CN(C2)C(=O)N1OS(=O)(=O)[O-].[Na+] (stereo not drawn) [Example 1, Sodium (5-methyl-4,9-dioxo-3-thia-5,8,10-triaza-tricyclo[6.2.1.0^2.6]undec-2(6)-en-10-yl) sulfate] | 3.3 nM | 0.69 nM | 3.3 nM | 40 nM | > 32 µg/mL | 4 µg/mL | <0.25 µg/mL | – | <0.25 µg/mL | 8 µg/mL | 2 µg/mL | 4 µg/mL | 4 µg/mL | <0.25 µg/mL | 32 µg/mL | >128 µg/mL | 4 µg/mL | 64 µg/mL | 32 µg/mL | –
4 | O=C1N2Cc3c(sc(=O)n3CCO)C(C2)N1OS(=O)(=O)[O-].[Na+] (stereo not drawn) [Example 5, Sodium [5-(2-hydroxyethyl)-4,9-dioxo-3-thia-5,8,10-triaza-tricyclo[6.2.1.0^2.6]undec-2(6)-en-10-yl) sulfate] | 1.8 nM | 0.68 nM | 1.7 nM | 31 nM | > 32 µg/mL | 4 µg/mL | <0.25 µg/mL | 4 µg/mL | <0.25 µg/mL | 4 µg/mL | <0.25 µg/mL | <0.25 µg/mL | 2 µg/mL | <0.25 µg/mL | 8 µg/mL | 64 µg/mL | – | – | – | –
